Data set [1] can be described thus: photostability of sunscreen film on polyethylene under UV light at 365 nm, extraction and C18 chromatography. It counts as physicochemical. To be noted: Example 1 composition (no tricontanyl polymer), between 4 and 8 hours of UV exposure, 2340 Watts/m^2. As for the experimental part:
To test the photostability of the sunscreen composition, 200-250 μl of the sunscreen composition was spread evenly over a 25 cm^2 piece of polyethylene film. The amount of sunscreen preparation was determined by weight, and the polyethylene film was dried for 1 hour at 35° C. After drying the film was exposed to […] (2340 Watts/m^2) of UV light at 365 nm for 0, 2, 4, 6 and 8 hours. Following light exposure, sunscreen was extracted with ethanol containing 1% acetic acid. Extracts were separated and quantitated with a C18 column with a methanol:water linear gradient.
The composition contains 3 wt. % avobenzone, 6 wt. % octocrylene, and 4 wt. % oxybenzophenone as sunscreen agents. Photo stability test of the composition was carried out as described in Example 1.

For data set [2] the following is noted: in vivo; cited from earlier work.

Regarding `COc1ccc(C(=O)CC(=O)c2ccc(C(C)(C)C)cc2)cc1` [avobenzone], the “loss of sunscreen agent with UV exposure” value in data set [1] was roughly 50%.

Regarding Poly(vinylpyrrolidone/eicosene) [PVPE], the dermal toxicity result in data set [2] is on record as “no demonstrable dermal toxicity”. In the case of “Poly(vinylpyrrolidone/1-hexadecene) [PVPH]”, in data set [2], the dermal toxicity result is given as “no demonstrable dermal toxicity”.

These data come from patent publication US8128913B1, “Sunscreen composition with enhanced UV-A absorber stability and methods” (Skinvisible Pharmaceuticals, Inc., priority 2007, dated 2012).
